# Measured values: patent US20240350659A1, “COMPOSITIONS AND METHODS FOR BIMODAL ANTI-VIRAL COMBINATION THERAPY” (priority 2021, published 2024)
# Legend:
# SARS-COV-2 [1] = assay: In vitro inhibition of SARS-COV-2 replication in Vero E6 cells (viral load by quantitative real-time RT-PCR); format: cell-based; settings: for effect of removal of the single agent from the formulation on overall activity (FIG. 18): APHR Combination 1 minus one agent
# SARS-COV-2 [2] = settings: WHO Solidarity Trial; cited from earlier work
# SARS-COV-2 [3] = assay: Human ACE2 transgenic COVID-19 mouse model (intranasal SARS-COV-2 infection); format: in vivo, mice; settings: for Survival (%): Daily
# SARS-COV-2 [4] = settings: 5-day course, 476 patients, mild COVID-19; cited from earlier work
# SARS-COV-2 [5] = format: in vivo; settings: intention-to-treat population; 10 subjects per arm
# [6] = 200 mg/kg, Pretreatment to Day 7
molecule,measurement,setting,value
O=C(OC[C@H]1O[C@@H](OC(=O)c2cc(O)c(O)c(OC(=O)c3cc(O)c(O)c(O)c3)c2)[C@H](OC(=O)c2cc(O)c(O)c(OC(=O)c3cc(O)c(O)c(O)c3)c2)[C@@H](OC(=O)c2cc(O)c(O)c(OC(=O)c3cc(O)c(O)c(O)c3)c2)[C@@H]1OC(=O)c1cc(O)c(O)c(OC(=O)c2cc(O)c(O)c(O)c2)c1)c1cc(O)c(O)c(OC(=O)c2cc(O)c(O)c(O)c2)c1 [tannic acid],effect of removal of the single agent from the formulation on overall activity (FIG. 18),SARS-COV-2 [1],reduced overall activity
Cc1cccc(C)c1OCC(=O)N[C@@H](Cc1ccccc1)[C@@H](O)C[C@H](Cc1ccccc1)NC(=O)[C@H](C(C)C)N1CCCNC1=O [lopinavir],effect on hospitalized patients with Covid-19,SARS-COV-2 [2],little or no effect
CCN(CCO)CCCC(C)Nc1ccnc2cc(Cl)ccc12 (stereo not shown) [hydroxychloroquine],effect on hospitalized patients with Covid-19,SARS-COV-2 [2],little or no effect
O=c1c(O)c(-c2ccc(O)c(O)c2)oc2cc(O)cc(O)c12 [Quercitin],Survival (%),"SARS-COV-2 [3]; 66 mg/kg, Pretreatment to Day 7",80%
same,Survival (%),SARS-COV-2 [3]; [6],100%
ivermectin,"morbidity, body weight (FIG. 8)","SARS-COV-2 [3]; β-cyclodextrin Rutin daily from Day 2 post infection, Ivermectin once on Day 2 post infection",decreased morbidity
same,duration of symptoms compared with placebo,SARS-COV-2 [4],not significantly different
same,Time to defervescence (days),SARS-COV-2 [5],4 (3 to 6) days
same,Time to resolution of COVID symptoms (days),SARS-COV-2 [5],4 (3 to 6) days
C[C@@H]1O[C@@H](OC[C@H]2O[C@@H](Oc3c(-c4ccc(O)c(O)c4)oc4cc(O)cc(O)c4c3=O)[C@H](O)[C@@H](O)[C@@H]2O)[C@H](O)[C@H](O)[C@H]1O [rutin],inhibition at 1 µM,"SARS-COV-2 [1]; Severe acute respiratory syndrome coronavirus 2, Vero C1008, 1 μM final concentration, 1:1 molar ratio of cyclodextrin to rutin, read-out: inhibition of SARS-COV-2 replication over untreated (FIG. 16)",~25%
CCC(CC)COC(=O)[C@H](C)N[P@](=O)(OC[C@H]1O[C@@](C#N)(c2ccc3c(N)ncnn23)[C@H](O)[C@@H]1O)Oc1ccccc1 [Remdesivir],Survival (%),"SARS-COV-2 [3]; 50 mg/kg, Day 1 post-treatment to 7",100%
same,Survival (%),SARS-COV-2 [3]; [6],100%
CC(C)=CCC[C@](C)(O)C1CC=C(C)CC1 (stereo partly shown) [bisabolol],effect of removal of the single agent from the formulation on overall activity (FIG. 18),SARS-COV-2 [1],reduced overall activity
